Marks after values point to notes of the source that are not given here. Where a SMILES comes first, the peptide text is derived from it.
Tests used:
GLP-1R = target: T1, GLP-1R (Homo sapiens, UniProt P43220); assay: GLP-1 receptor-mediated cAMP production in vitro; type: cell-based; conditions: HEK293 cell line stably expressing GLP-1R
T1 construct: expressed in transfected cells
Protocol: (§1) HEK293 cell line stably expressing GLP-1R or GCGR was used for screening GLP-1R and GCGR agonist.
(§2) Preparation of test sample: each compound was prepared into 100 μM stock solution, and then gradually diluted to working concentrations of 1 μM, 100 nM, 10 nM, 1 nM, 10^−1 nM, 10^−2 nM, 10^−3 nM, and H2O.
(§3) 1) Each compound to be tested was mixed with a serum-free medium (containing 0.1% BSA and 0.5 mM IBMX) to obtain a solution at a concentration 2 times the working concentration.
(§4) 2) The cells were digested, suspended in a serum-free medium (containing 0.5 mM IBMX), counted, and placed in a 384-well plate at a density of 1,000 cells/5 μL/well, then 5 μL of the testing compound was added, and the plate was placed in dark for reaction for 30 min.
(§5) 3) After the reaction was completed, a substrate for detecting cAMP was added, and the plate was placed in dark for reaction at the room temperature for 60 min.
(§6) 4) After the reaction was completed, the plate was placed on the Envision2104 multifunctional microplate reader for detection, and the ratio of optical density (OD) values at 665 nm and 615 nm were read out.

[1] = test system: glucose loaded normal mice; assay: Glucose loading test on normal mice after single administration; type: in vivo, Kunming mice; conditions: for Blood glucose reduction rate (%): after glucose loading, versus model control group; for Blood glucose level after glucose loading: glucose 2.5 g/kg intragastric 60 min after administration, measured 30 min after loading; for Blood glucose level after glucose loading / Fasting blood glucose level: n=5; for Fasting blood glucose level: normal mice fasted 6 h, 30 nmol/kg group
Protocol: The hypoglycemic action of each compound of Example 1 was assessed by a glucose loading test on normal mice after single administration.
Method: Kunming mice (male, with a weight of 20-22 g) were acclimated in a barrier environment animal room for 3 days, divided into a blank control group, a model control group, a positive control group, and test compound groups, 5 mice in each group, and fasted for 6 h. Saline was administered to each mouse in the blank control group and the model control group, the compounds and a positive control drug were respectively administered to each mouse in the test compound groups and the positive control group at a dose of 30 nmol/kg, and the positive control drug was semaglutide. 60 min after administration, glucose was intragastrically administered to each mouse in the model control group, the positive control group, and the test compound groups at a dose of 2.5 g/kg (0.01 mL·g^−1 weight), distilled water was administered to each mouse in the blank control group, and blood glucose levels were determined 30 min after glucose loading.

GCGR = target: T2, GCGR (Homo sapiens, UniProt P47871); assay: GC receptor-mediated cAMP production in vitro; type: cell-based; conditions: HEK293 cell line stably expressing GCGR
T2 construct: expressed in transfected cells
Protocol: as §1, §2, §3, §4, §5, §6

[2] = test system: diet-induced obesity (DIO) mice; assay: DIO mice, weight and blood glucose after multiple administrations at different doses; type: in vivo, C57BL/6N mice; conditions: for Fasting blood glucose (mmol/L) before the last administration / Blood glucose level (mmol/L) 0.5 h after glucose loading / Glycemic load reduction rate: Day 22; for Fasting blood glucose (mmol/L) before the last administration: fasted 16 h; for Blood glucose level (mmol/L) 0.5 h after glucose loading: glucose 1 g/kg intragastric 30 min after administration; for Glycemic load reduction rate: versus model control group; for Reduction rate of weight without fasting on day 21 compared to day 0: n=5
Text: 40 C57BL/6N mice were purchased from Beijing Vital River Laboratory Animal Technology Co., Ltd. Mice in a model group (n=35) were fed with H10060 high-fat diets to obtain diet-induced obesity (DIO) models, mice in a blank control group (n=5) were fed with standard diets, and all the mice were fed for 36 weeks. On the day of the first administration, the mice in the model group were randomly divided into 7 groups according to their weights (within a range of 45-60 g), i.e., a model control group, positive control groups (semaglutide at doses of 10 nmol/kg and 30 nmol/kg, respectively), and test compound groups (dgc005 and dgc016 at doses of 10 nmol/kg and 30 nmol/kg, respectively), 5 mice in each group. The positive control drug and the test compounds were respectively subcutaneously injected into each mouse in the positive control groups and the test compound groups every day, saline was subcutaneously injected into each mouse in the blank control group and the model control group, and the administration was performed for 22 days (the administration volume for each group was 0.005 mL/g weight). The mice were weighed before each administration, and 72-h food intake was weighed every three days. The mice fasted for 16 h before the last administration, and 30 min after administration, a glucose solution (1 g/kg, the administration volume was 0.01 mL/g weight) was intragastrically administered to each mouse for glucose tolerance test. Blood glucose levels were determined 0.5 h after glucose loading.

[3] = test system: diet-induced obesity (DIO) mice; assay: Obese (DIO) model mice, 23 days of successive administration; type: in vivo, C57BL/6J Gpt mice; conditions: for Fasting blood glucose (mmol/L) before the last administration: fasted 16 h; for Fasting blood glucose (mmol/L) before the last administration / TC (total cholesterol) / TG (triglycerides): n=5; for Weight decreasing rate: 30 nmol/kg s.c. every day, without fasting before the last administration compared to day 1; for Examination of liver pathological section: HE stain, 2 animals; for TC (total cholesterol) / TG (triglycerides): after 23 days of administration
Text: C57BL/6J Gpt mice (purchased from GemPharmatech (Jiangsu) Co., Ltd.) (6-8-week-old) were fed with H10060 high-fat diet (purchased from Beijing HFK Bioscience Co., Ltd.) to obtain diet-induced obesity (DIO) models, mice in a blank control group (n=5) were fed with standard diets, and all the mice were fed for 11 weeks after being purchased. One day before the first administration, the mice in the model group were randomly divided into 5 groups according to their weights (within a range of 39.5-49.5 g), i.e., a model control group, a positive control group, and test compound groups (dgc005, dgc016, and dgc020), respectively, 5 mice in each group, which were administered every day by subcutaneous injection. Saline was subcutaneously injected in the blank control group and the model control group every day. The administration was performed for 23 days. The positive control drug and the test compounds were administered at a dose of 30 nmol/kg, and the administration volume for each group was 0.005 mL/g weight. The mice were weighed before each administration, and 72-h food intake was weighed every three days. The mice fasted for 16 h before the last administration, fasting blood glucose levels were determined, blood was sampled from the orbital venous plexus to determine triglycerides and total cholesterol, and the liver was taken out for pathological section observation.
The liver of each C576L/6 mouse in the groups was fixed with 12% formaldehyde and prepared into a specimen, and the tissue block was repaired, dehydrated with graded alcohol, embedded in paraffin, stained with HE, and examined under a light microscope.

[4] = day 4 of administration, 30 nmol/kg s.c. daily
[5] = day 7 of administration, 30 nmol/kg s.c. daily
[6] = day 10 of administration, 30 nmol/kg s.c. daily
[7] = day 13 of administration, 30 nmol/kg s.c. daily

T1 sequence (P43220 24-463, species assumed): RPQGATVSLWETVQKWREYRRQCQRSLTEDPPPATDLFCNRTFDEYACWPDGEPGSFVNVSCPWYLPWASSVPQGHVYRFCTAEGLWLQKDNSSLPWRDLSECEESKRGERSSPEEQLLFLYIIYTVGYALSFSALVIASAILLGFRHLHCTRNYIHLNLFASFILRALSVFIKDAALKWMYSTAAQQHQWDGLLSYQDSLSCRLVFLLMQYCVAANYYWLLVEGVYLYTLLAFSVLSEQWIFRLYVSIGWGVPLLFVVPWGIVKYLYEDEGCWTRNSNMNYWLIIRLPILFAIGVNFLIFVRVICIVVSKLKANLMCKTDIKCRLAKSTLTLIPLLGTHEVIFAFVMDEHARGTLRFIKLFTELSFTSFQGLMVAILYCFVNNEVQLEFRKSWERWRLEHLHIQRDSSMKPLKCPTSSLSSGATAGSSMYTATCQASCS
T2 sequence (P47871 26-477, species assumed): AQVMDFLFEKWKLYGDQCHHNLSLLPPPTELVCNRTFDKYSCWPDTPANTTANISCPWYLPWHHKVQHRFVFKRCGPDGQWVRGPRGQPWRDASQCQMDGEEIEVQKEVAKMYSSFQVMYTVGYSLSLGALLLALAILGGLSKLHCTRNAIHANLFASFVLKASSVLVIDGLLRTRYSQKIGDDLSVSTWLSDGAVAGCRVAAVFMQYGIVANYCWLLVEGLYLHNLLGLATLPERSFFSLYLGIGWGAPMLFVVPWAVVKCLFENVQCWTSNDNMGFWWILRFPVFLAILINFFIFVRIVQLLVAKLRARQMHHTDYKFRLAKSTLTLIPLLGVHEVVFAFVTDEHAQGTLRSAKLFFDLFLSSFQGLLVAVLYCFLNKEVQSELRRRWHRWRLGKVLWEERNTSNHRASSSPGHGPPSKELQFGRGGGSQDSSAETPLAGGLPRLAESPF

SMILES	EC50 (GLP-1R) [nM]	Blood glucose reduction rate (%) ([1]; 30 nmol/kg single dose)	Blood glucose level after glucose loading ([1]; 30 nmol/kg single dose)	Fasting blood glucose level [1] [mmol/L]	EC50 (GCGR) [nM]	Fasting blood glucose (mmol/L) before the last administration ([3]; 30 nmol/kg s.c. daily, 23 days) [mmol/L]	Weight decreasing rate [3] [%]	Examination of liver pathological section ([3]; 23 days, 30 nmol/kg s.c. daily)	TC (total cholesterol) ([3]; 30 nmol/kg s.c. daily) [mmol/L]	TG (triglycerides) ([3]; 30 nmol/kg s.c. daily)	72-h food intake [3, 4] [g/mouse]	72-h food intake [3, 5] [g/mouse]	72-h food intake [3, 6] [g/mouse]	72-h food intake [3, 7] [g/mouse]	further results
CCCCCCCCCCCCCCCC(=O)N[C@@H](CCC(=O)N[C@@H](CCC(=O)NCCCC[C@H](NC(=O)[C@H](C)NC(=O)[C@H](C)NC(=O)[C@H](CCCNC(=N)N)NC(=O)[C@H](CCC(=O)O)NC(=O)[C@H](CCC(=O)O)NC(=O)[C@H](CC(C)C)NC(=O)[C@H](Cc1ccc(O)cc1)NC(=O)[C@H](CCCCN)NC(=O)[C@H](CO)NC(=O)[C@H](Cc1ccc(O)cc1)NC(=O)[C@H](CC(=O)O)NC(=O)[C@H](CO)NC(=O)[C@@H](NC(=O)[C@H](Cc1ccccc1)NC(=O)[C@@H](NC(=O)CNC(=O)[C@H](CCC(N)=O)NC(=O)C(C)(C)NC(=O)[C@@H](N)Cc1c[nH]cn1)[C@@H](C)O)[C@@H](C)O)C(=O)N[C@@H](CCC(=O)O)C(=O)N[C@@H](Cc1ccccc1)C(=O)N[C@H](C(=O)N[C@@H](C)C(=O)N[C@@H](Cc1c[nH]c2ccccc12)C(=O)N[C@@H](CC(C)C)C(=O)N[C@@H](CCC(=O)O)C(=O)N[C@@H](C)C(=O)NCC(=O)NCC(N)=O)[C@@H](C)CC)C(=O)O)C(=O)O [dgc005] (HELM PEPTIDE1{H.[Aib].Q.G.T.F.T.S.D.Y.S.K.Y.L.E.E.R.A.A.K.E.F.I.A.W.L.E.A.G.G.[am]}|PEPTIDE2{[CCCCCCCCCCCCCCCC(=O)[*:2]].[gGlu].[gGlu]}$PEPTIDE1,PEPTIDE2,20:R3-3:R2$$$V2.0; N-terminus assumed)	0.484	60.59	6.70 ± 1.88**^ mmol/L	3.96 ± 0.62	1.16	4.60 ± 0.34	27	no obvious pathological changes are seen in portal areas and interstitium	3.07 ± 0.50	0.58 ± 0.10**^#ΔΔ mmol/L	2.50	3.80	4.20	4.60	Inhibition of the rise of blood glucose after glucose loading (in words) ([1]; 30 nmol/kg single dose, normal mice): equivalent to that of the positive control drug; Fasting blood glucose (mmol/L) before the last administration ([2]; 10 nmol/kg s.c. daily): 5.34 ± 1.20 mmol/L; Blood glucose level (mmol/L) 0.5 h after glucose loading ([2]; 10 nmol/kg s.c. daily): 7.52 ± 0.77 mmol/L; Glycemic load reduction rate ([2]; 10 nmol/kg s.c. daily): 28.52; Reduction rate of weight without fasting on day 21 compared to day 0 ([2]; 10 nmol/kg s.c. every day): 18.41%; Fasting blood glucose (mmol/L) before the last administration ([2]; 30 nmol/kg s.c. daily): 4.22 ± 2.13 mmol/L; Blood glucose level (mmol/L) 0.5 h after glucose loading ([2]; 30 nmol/kg s.c. daily): 7.82 ± 1.09 mmol/L; Glycemic load reduction rate ([2]; 30 nmol/kg s.c. daily): 25.66; Reduction rate of weight without fasting on day 21 compared to day 0 ([2]; 30 nmol/kg s.c. every day): 21.39%; Effect on total cholesterol (in words) ([3]; 23 days, 30 nmol/kg s.c. daily): reduced total cholesterol (TC) in a certain extent; Effect on triglycerides (in words) ([3]; 23 days, 30 nmol/kg s.c. daily): significantly reduce triglycerides (TGs)
CCCCCCCCCCCCCCCC(=O)N[C@@H](CCC(=O)N[C@@H](CCC(=O)NCCCC[C@H](NC(=O)[C@H](C)NC(=O)[C@H](C)NC(=O)[C@H](CCCNC(=N)N)NC(=O)[C@H](CCC(=O)O)NC(=O)[C@H](CCC(=O)O)NC(=O)[C@H](CC(C)C)NC(=O)[C@H](Cc1ccc(O)cc1)NC(=O)[C@H](CCCCN)NC(=O)[C@H](CO)NC(=O)[C@H](Cc1ccc(O)cc1)NC(=O)[C@H](CC(=O)O)NC(=O)[C@H](CO)NC(=O)[C@@H](NC(=O)[C@H](Cc1ccccc1)NC(=O)[C@@H](NC(=O)CNC(=O)[C@H](CCC(N)=O)NC(=O)C(C)(C)NC(=O)[C@@H](N)Cc1c[nH]cn1)[C@@H](C)O)[C@@H](C)O)C(=O)N[C@@H](CCC(=O)O)C(=O)N[C@@H](Cc1ccccc1)C(=O)N[C@H](C(=O)N[C@@H](C)C(=O)N[C@@H](Cc1c[nH]c2ccccc12)C(=O)N[C@@H](CC(C)C)C(=O)N[C@@H](CCC(=O)O)C(=O)NCC(=O)N[C@@H](CCC(=O)O)C(=O)NCC(N)=O)[C@@H](C)CC)C(=O)O)C(=O)O [dgc020] (HELM PEPTIDE1{H.[Aib].Q.G.T.F.T.S.D.Y.S.K.Y.L.E.E.R.A.A.K.E.F.I.A.W.L.E.G.E.G.[am]}|PEPTIDE2{[CCCCCCCCCCCCCCCC(=O)[*:2]].[gGlu].[gGlu]}$PEPTIDE1,PEPTIDE2,20:R3-3:R2$$$V2.0; N-terminus assumed)	1.51	42.24	9.82 ± 2.06 mmol/L	4.24 ± 0.63	0.883	4.78 ± 0.46	25.0	no obvious pathological changes are seen in portal areas and interstitium	3.62 ± 0.84	0.88 ± 0.28^Δ mmol/L	3.50	4.50	5.70	5.50	
